Laboratory results from the NIST ThermoML archive (doi:10.1016/j.jct.2016.08.001).
Numbers after ± are expanded uncertainties.

Assays:
[1] = refractive index (Na D-line) (dimensionless); xn = mol fraction of the nth substance listed; conditions: 100 kPa, Liquid, Standard Abbe refractometry, x1 = 1
[2] = xn = mol fraction of the nth substance listed; conditions: 100 kPa, Liquid, x1 = 1; for speed of sound: Frequency=3 MHz, Sing-around technique in a fixed-path interferometer; for mass density: Vibrating tube method
[3] = 100 kPa, Liquid; for speed of sound: Frequency=3 MHz, Sing-around technique in a fixed-path interferometer; for mass density: Vibrating tube method
[4] = refractive index (Na D-line) (dimensionless); conditions: 100 kPa, Liquid, Standard Abbe refractometry

Structure (SMILES)	refractive index ([1]; 298.15 K)	refractive index ([1]; 303.15 K)	speed of sound ([3]; 298.15 K) [m/s]	mass density ([3]; 298.15 K) [kg/m3]	speed of sound ([3]; 303.15 K) [m/s]	mass density ([3]; 303.15 K) [kg/m3]	speed of sound ([3]; 308.15 K) [m/s]	mass density ([3]; 308.15 K) [kg/m3]	speed of sound ([3]; 313.15 K) [m/s]	mass density ([3]; 313.15 K) [kg/m3]	speed of sound ([3]; 318.15 K) [m/s]	mass density ([3]; 318.15 K) [kg/m3]	speed of sound ([3]; 323.15 K) [m/s]	mass density ([3]; 323.15 K) [kg/m3]	refractive index ([4]; 298.15 K)	refractive index ([4]; 303.15 K)	refractive index ([4]; 308.15 K)	refractive index ([4]; 313.15 K)	refractive index ([4]; 318.15 K)	refractive index ([4]; 323.15 K)	other results
CCOC(=O)OCC [diethyl carbonate] + O=Cc1ccccc1	1.3825 ± 0.0016	1.3802 ± 0.0016	–	–	–	–	–	–	–	–	–	–	–	–	–	–	–	–	–	–	refractive index ([1]; 308.15 K): 1.3779 ± 0.0016; refractive index ([1]; 313.15 K): 1.3756 ± 0.0016; refractive index ([1]; 318.15 K): 1.3733 ± 0.0016; refractive index ([1]; 323.15 K): 1.371 ± 0.0016; speed of sound ([2]; 298.15 K): 1177.5 ± 1.6 m/s; mass density ([2]; 298.15 K): 969.1 ± 1 kg/m3; speed of sound ([2]; 303.15 K): 1156.9 ± 1.6 m/s; mass density ([2]; 303.15 K): 963.5 ± 1 kg/m3; speed of sound ([2]; 308.15 K): 1136.6 ± 1.5 m/s; mass density ([2]; 308.15 K): 957.8 ± 1 kg/m3; speed of sound ([2]; 313.15 K): 1116.5 ± 1.5 m/s; mass density ([2]; 313.15 K): 952.1 ± 1 kg/m3; speed of sound ([2]; 318.15 K): 1096.5 ± 1.5 m/s; mass density ([2]; 318.15 K): 946.4 ± 1 kg/m3; speed of sound ([2]; 323.15 K): 1076.7 ± 1.5 m/s; mass density ([2]; 323.15 K): 940.7 ± 1 kg/m3
CCOC(=O)OCC [diethyl carbonate]	–	–	1177.5 ± 1.6	969.1 ± 1	1156.9 ± 1.6	963.5 ± 1	1136.6 ± 1.5	957.8 ± 1	1116.5 ± 1.5	952.1 ± 1	1096.5 ± 1.5	946.4 ± 1	1076.7 ± 1.5	940.7 ± 1	1.3825 ± 0.0016	1.3802 ± 0.0016	1.3779 ± 0.0016	1.3756 ± 0.0016	1.3733 ± 0.0016	1.371 ± 0.0016	–
O=Cc1ccccc1 [benzaldehyde]	–	–	1457.3 ± 1.6	1041 ± 1	1438.9 ± 1.6	1036.5 ± 1	1420.6 ± 1.6	1032 ± 1	1402.4 ± 1.6	1027.5 ± 1	1384.4 ± 1.6	1023 ± 1	1366.4 ± 1.6	1018.4 ± 1	1.541 ± 0.0016	1.5383 ± 0.0016	1.5357 ± 0.0016	1.5332 ± 0.0016	1.5307 ± 0.0016	1.5282 ± 0.0016	–
N#Cc1ccccc1 [benzonitrile]	–	–	1415.6 ± 1.5	1000.6 ± 1	1398.1 ± 1.5	995.9 ± 1	1380.8 ± 1.5	991.4 ± 1	1363.6 ± 1.5	986.9 ± 1	1346.5 ± 1.5	982.5 ± 1	1329.5 ± 1.5	977.9 ± 1	1.526 ± 0.0016	1.5235 ± 0.0016	1.5209 ± 0.0016	1.5184 ± 0.0016	1.5158 ± 0.0016	1.5133 ± 0.0016	–
CCOC(=O)OCC [diethyl carbonate] + Nc1ccccc1	1.3825 ± 0.0016	1.3802 ± 0.0016	–	–	–	–	–	–	–	–	–	–	–	–	–	–	–	–	–	–	refractive index ([1]; 308.15 K): 1.3779 ± 0.0016; refractive index ([1]; 313.15 K): 1.3756 ± 0.0016; refractive index ([1]; 318.15 K): 1.3733 ± 0.0016; refractive index ([1]; 323.15 K): 1.371 ± 0.0016; speed of sound ([2]; 298.15 K): 1177.5 ± 1.6 m/s; mass density ([2]; 298.15 K): 969.1 ± 1 kg/m3; speed of sound ([2]; 303.15 K): 1156.9 ± 1.6 m/s; mass density ([2]; 303.15 K): 963.5 ± 1 kg/m3; speed of sound ([2]; 308.15 K): 1136.6 ± 1.5 m/s; mass density ([2]; 308.15 K): 957.8 ± 1 kg/m3; speed of sound ([2]; 313.15 K): 1116.5 ± 1.5 m/s; mass density ([2]; 313.15 K): 952.1 ± 1 kg/m3; speed of sound ([2]; 318.15 K): 1096.5 ± 1.5 m/s; mass density ([2]; 318.15 K): 946.4 ± 1 kg/m3; speed of sound ([2]; 323.15 K): 1076.7 ± 1.5 m/s; mass density ([2]; 323.15 K): 940.7 ± 1 kg/m3
Nc1ccccc1 [aniline]	–	–	1636.8 ± 1.5	1017.1 ± 1	1617.5 ± 1.5	1012.7 ± 1	1598.3 ± 1.5	1008.4 ± 1	1579.1 ± 1.5	1004.1 ± 1	1560 ± 1.5	999.7 ± 1	1540.9 ± 1.5	995.4 ± 1	1.5826 ± 0.0016	1.5793 ± 0.0016	1.576 ± 0.0016	1.5727 ± 0.0016	1.5694 ± 0.0016	1.5661 ± 0.0016	–
CCOC(=O)OCC [diethyl carbonate] + N#Cc1ccccc1	1.3825 ± 0.0016	1.3802 ± 0.0016	–	–	–	–	–	–	–	–	–	–	–	–	–	–	–	–	–	–	refractive index ([1]; 308.15 K): 1.3779 ± 0.0016; refractive index ([1]; 313.15 K): 1.3756 ± 0.0016; refractive index ([1]; 318.15 K): 1.3733 ± 0.0016; refractive index ([1]; 323.15 K): 1.371 ± 0.0016; speed of sound ([2]; 298.15 K): 1177.5 ± 1.6 m/s; mass density ([2]; 298.15 K): 969.1 ± 1 kg/m3; speed of sound ([2]; 303.15 K): 1156.9 ± 1.6 m/s; mass density ([2]; 303.15 K): 963.5 ± 1 kg/m3; speed of sound ([2]; 308.15 K): 1136.6 ± 1.5 m/s; mass density ([2]; 308.15 K): 957.8 ± 1 kg/m3; speed of sound ([2]; 313.15 K): 1116.5 ± 1.5 m/s; mass density ([2]; 313.15 K): 952.1 ± 1 kg/m3; speed of sound ([2]; 318.15 K): 1096.5 ± 1.5 m/s; mass density ([2]; 318.15 K): 946.4 ± 1 kg/m3; speed of sound ([2]; 323.15 K): 1076.7 ± 1.5 m/s; mass density ([2]; 323.15 K): 940.7 ± 1 kg/m3
